This is an account of results in the NIST ThermoML archive (doi:10.1021/je800088e).

One may read the vapor or sublimation pressure as the pressure of vapour in equilibrium with the condensed phase.

For this data set the following is noted: Liquid, Closed cell (Static) method.

Values joined by “and” are separate entries in the source; they are usually repeats but may differ in a detail not shown here. Equal entries are not always repeated. Numbers after ± are expanded uncertainties.

On to `CO` [methanol], for which the “vapor or sublimation pressure” value (364.52 K) worked out at 267.3 ± 1.4 kPa. As for `CC(C)O` [propan-2-ol], the “vapor or sublimation pressure” value (364.52 K) stood at 143.9 ± 1 kPa. For the molecule `CCC(C)O` (stereo unspecified) [butan-2-ol], the “vapor or sublimation pressure” value (364.52 K) was found to be 74 ± 0.9 kPa.

Turning to `C/C=C\C` [(Z)-2-butene], the “vapor or sublimation pressure” value is 1190.5 ± 5.3 kPa and 1189.6 ± 5.2 kPa (364.52 K); 1190.7 ± 5.2 kPa (364.53 K). On to `CC(C)(C)O` [2-methylpropan-2-ol], for which the “vapor or sublimation pressure” value (364.52 K) stood at 143 ± 1 kPa.
